Laboratory results taken from PubChem BioAssay (NCI).
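All cell lines were grown in 96-well plates and treated with compound for 48 hours. GI50 marks 50% less growth. TGI: total growth inhibition.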

Columns and labels:
Experiment in all cases: DTP human tumour cell line panel, 48 h
[1] = tested on: T-47D breast
[2] = tested on: NCI/ADR-RES ovarian
[3] = tested on: NCI-H23 lung
[4] = tested on: UO-31 renal
[5] = tested on: HS 578T breast
[6] = tested on: SW-620 colon
[7] = tested on: SNB-75 CNS
[8] = tested on: KM12 colon
[9] = tested on: HL-60(TB) leukemia
[10] = tested on: CAKI-1 renal
[11] = tested on: K-562 leukemia
[12] = tested on: MOLT-4 leukemia
[13] = tested on: DU-145 prostate
[14] = tested on: MALME-3M melanoma
[15] = tested on: EKVX NSCLC
[16] = tested on: HCT-15 colon
[17] = tested on: HOP-92 NSCLC
[18] = tested on: UACC-62 melanoma
[19] = tested on: SK-MEL-5 melanoma
[20] = tested on: MCF7 breast
[21] = tested on: ACHN renal
[22] = tested on: MDA-MB-231 breast
[23] = tested on: RXF 393 renal
[24] = tested on: RPMI-8226 leukemia
[25] = tested on: SK-OV-3 ovarian
[26] = tested on: SF-268 CNS
[27] = tested on: HT29 colon
[28] = tested on: CCRF-CEM leukemia
[29] = tested on: SF-295 CNS
[30] = tested on: SK-MEL-2 melanoma
[31] = tested on: OVCAR-5 ovarian
[32] = tested on: MDA-MB-435
[33] = tested on: BT-549 breast
[34] = tested on: SF-539 CNS
[35] = tested on: OVCAR-3 ovarian
[36] = tested on: M14 melanoma
[37] = tested on: NCI-H460 lung
[38] = tested on: HCC-2998 colon
[39] = tested on: A498 renal
[40] = tested on: OVCAR-4 ovarian
[41] = tested on: COLO 205 colon
[42] = tested on: 786-0 renal
[43] = tested on: TK-10 renal
[44] = tested on: SNB-19 CNS
[45] = tested on: OVCAR-8 ovarian
[46] = tested on: A549 NSCLC
[47] = tested on: SN12C renal
[48] = tested on: U251 CNS
[49] = tested on: HCT-116 colon
[50] = tested on: PC-3 prostate
[51] = tested on: LOX IMVI melanoma
[52] = tested on: NCI-H522 lung
[53] = tested on: SK-MEL-28 melanoma
[54] = tested on: UACC-257 melanoma
[55] = tested on: HOP-62 NSCLC
[56] = tested on: NCI-H226 lung
[57] = tested on: IGROV1 ovarian
[58] = tested on: SR leukemia

## NC(=Nc1ccc(N)cc1)C(N)=Nc1ccc(N)cc1
[1]
  GI50: > 100 µM
  TGI: > 100 µM
[2]
  GI50: > 100 µM
  TGI: > 100 µM
[3]
  GI50: > 100 µM
  TGI: > 100 µM
[4]
  GI50: 33.5 µM
  TGI: > 100 µM
[5]
  GI50: > 100 µM
  TGI: > 100 µM
[6]
  GI50: 64.1 µM
  TGI: > 100 µM
[7]
  GI50: > 100 µM
  TGI: > 100 µM
[8]
  GI50: 61 µM
  TGI: > 100 µM
[9]
  GI50: 57.1 µM
  TGI: > 100 µM
[10]
  GI50: 52.6 µM
  TGI: > 100 µM
[11]
  GI50: 81.8 µM
  TGI: > 100 µM
[12]
  GI50: 55.5 µM
  TGI: > 100 µM
[13]
  GI50: > 100 µM
  TGI: > 100 µM
[14]
  GI50: 45.9 µM
  TGI: > 100 µM
[15]
  GI50: > 100 µM
  TGI: > 100 µM
[16]
  GI50: 42.6 µM
  TGI: > 100 µM
[17]
  GI50: > 100 µM
  TGI: > 100 µM
[18]
  GI50: > 100 µM
  TGI: > 100 µM
[19]
  GI50: > 100 µM
  TGI: > 100 µM
[20]
  GI50: 82.8 µM
  TGI: > 100 µM
[21]
  GI50: 37.5 µM
  TGI: > 100 µM
[22]
  GI50: 77.6 µM
  TGI: > 100 µM
[23]
  GI50: > 100 µM
  TGI: > 100 µM
[24]
  GI50: > 100 µM
  TGI: > 100 µM
[25]
  GI50: > 100 µM
  TGI: > 100 µM
[26]
  GI50: > 100 µM
  TGI: > 100 µM
[27]
  GI50: 63.4 µM
  TGI: > 100 µM
[28]
  GI50: 45.7 µM
  TGI: > 100 µM
[29]
  GI50: > 100 µM
  TGI: > 100 µM
[30]
  GI50: > 100 µM
  TGI: > 100 µM
[31]
  GI50: > 100 µM
  TGI: > 100 µM
[32]
  GI50: > 100 µM
  TGI: > 100 µM
[33]
  GI50: > 100 µM
  TGI: > 100 µM
[34]
  GI50: 73.7 µM
  TGI: > 100 µM
[35]
  GI50: 33.3 µM
  TGI: > 100 µM
[36]
  GI50: > 100 µM
  TGI: > 100 µM
[37]
  GI50: > 100 µM
  TGI: > 100 µM
[38]
  GI50: > 100 µM
  TGI: > 100 µM
[39]
  GI50: 25.3 µM
  TGI: > 100 µM
[40]
  GI50: > 100 µM
  TGI: > 100 µM
[41]
  GI50: 43.5 µM
  TGI: > 100 µM
[42]
  GI50: > 100 µM
  TGI: > 100 µM
[43]
  GI50: > 100 µM
  TGI: > 100 µM
[44]
  GI50: > 100 µM
  TGI: > 100 µM
[45]
  GI50: 69.1 µM
  TGI: > 100 µM
[46]
  GI50: > 100 µM
  TGI: > 100 µM
[47]
  GI50: > 100 µM
  TGI: > 100 µM
[48]
  GI50: > 100 µM
  TGI: > 100 µM
[49]
  GI50: 92.5 µM
  TGI: > 100 µM
[50]
  GI50: 98.6 µM
  TGI: > 100 µM
[51]
  GI50: > 100 µM
  TGI: > 100 µM
[52]
  GI50: > 100 µM
  TGI: > 100 µM
[53]
  GI50: > 100 µM
  TGI: > 100 µM
[54]
  GI50: > 100 µM
  TGI: > 100 µM
[55]
  GI50: > 100 µM
  TGI: > 100 µM
[56]
  GI50: > 100 µM
  TGI: > 100 µM
[57]
  GI50: 79.1 µM
  TGI: > 100 µM

## COc1ccc(Cn2cc3c(c2-c2ccccc2)CCc2cnoc2-3)cc1N
[1]
  GI50: 3.86 µM
  TGI: > 100 µM
[2]
  GI50: 0.0828 µM
[3]
  GI50: 0.441 µM
  TGI: > 100 µM
[4]
  GI50: 0.967 µM
  TGI: > 100 µM
[58]
  GI50: 0.0528 µM
  TGI: 4.25 µM
[6]
  GI50: 0.0779 µM
  TGI: > 100 µM
[7]
  GI50: 0.114 µM
  TGI: 0.777 µM
[8]
  GI50: 0.0788 µM
  TGI: 2.58 µM
[9]
  GI50: 0.137 µM
  TGI: 0.617 µM
[10]
  GI50: 0.116 µM
  TGI: > 100 µM
[11]
  GI50: 0.0452 µM
  TGI: > 100 µM
[12]
  GI50: 0.398 µM
  TGI: > 96.1 µM
[13]
  GI50: 0.21 µM
  TGI: 1.27 µM
[15]
  GI50: 0.359 µM
  TGI: > 100 µM
[16]
  GI50: 0.15 µM
  TGI: > 100 µM
[18]
  GI50: 0.182 µM
  TGI: > 100 µM
[19]
  GI50: 0.0617 µM
  TGI: 2.58 µM
[20]
  GI50: 0.05 µM
  TGI: > 100 µM
[21]
  GI50: 1.11 µM
  TGI: > 100 µM
[22]
  GI50: 1.03 µM
  TGI: > 100 µM
[23]
  GI50: 0.32 µM
  TGI: > 100 µM
[24]
  GI50: 0.31 µM
[25]
  GI50: 0.252 µM
  TGI: > 100 µM
[26]
  GI50: 0.812 µM
  TGI: > 100 µM
[27]
  GI50: 1.78 µM
  TGI: 15.1 µM
[28]
  GI50: 0.245 µM
[29]
  GI50: 0.154 µM
  TGI: 3.28 µM
[30]
  GI50: 0.273 µM
  TGI: > 100 µM
[31]
  GI50: 0.629 µM
  TGI: > 100 µM
[33]
  GI50: 3.01 µM
  TGI: > 100 µM
[34]
  GI50: 0.158 µM
  TGI: 0.579 µM
[35]
  GI50: 0.0526 µM
  TGI: 0.244 µM
[36]
  GI50: 0.227 µM
  TGI: > 100 µM
[37]
  GI50: 0.115 µM
  TGI: 1.66 µM
[38]
  GI50: 0.496 µM
  TGI: > 100 µM
[39]
  GI50: 0.0638 µM
  TGI: 0.64 µM
[40]
  GI50: 0.898 µM
  TGI: > 100 µM
[41]
  GI50: 1.32 µM
  TGI: 4.08 µM
[42]
  GI50: 0.602 µM
  TGI: > 100 µM
[43]
  GI50: 0.626 µM
  TGI: > 100 µM
[44]
  GI50: 0.531 µM
  TGI: > 100 µM
[45]
  GI50: 0.468 µM
  TGI: > 100 µM
[46]
  GI50: 0.224 µM
  TGI: > 100 µM
[47]
  GI50: 0.694 µM
  TGI: > 100 µM
[48]
  GI50: 0.287 µM
  TGI: > 100 µM
[49]
  GI50: 0.0996 µM
  TGI: > 33.9 µM
[50]
  GI50: 0.551 µM
  TGI: > 100 µM
[51]
  GI50: 0.766 µM
  TGI: > 100 µM
[52]
  GI50: 0.027 µM
  TGI: 0.339 µM
[53]
  GI50: 0.247 µM
  TGI: > 100 µM
[54]
  GI50: 10.2 µM
  TGI: > 100 µM
[55]
  GI50: 0.433 µM
  TGI: > 100 µM
[56]
  GI50: 2.24 µM
  TGI: > 100 µM
[57]
  GI50: 0.329 µM
  TGI: > 100 µM
